Test results published in publication PMC8065974 (Biomedicines, 2021).
Read-outs that look alike come from different tables or passages of the source.

Experiments:
Assay type in all cases: in vivo, mice (C57BL/6J)
[1] = tested on: Mn-SOD, Cu/Zn-SOD, GPX, CAT activities in obstructed kidney; assay: Curative treatment in UUO: antioxidant enzyme activities in kidney tissue; conditions: curative: 25 mg/kg, 5 days; vs UUO + vehicle
Experimental: After centrifugation (5000× g[…], for 10 min), the supernatant was used for protein quantification and enzymatic assays. The total protein level of lysate was quantified by the bicinchoninic acid assay (BCA). SOD activity was assayed by monitoring the rate of acetylated cytochrome c reduction by superoxide radicals generated by the xanthine/xanthine oxidase system. Measurements were performed in a reagent buffer (xanthine oxidase, xanthine (0.5 mM), cytochrome c (0.2 mM), KH2PO4 (50 mM), EDTA (2 mM), pH 7.8) at 25 °C. The specific MnSOD activities were determined in the same conditions after incubation of samples with NaCN (1 mM) which inhibits Cu/ZnSOD activities. Assays were monitored by spectrophotometry at 560 nm. SOD activities were calculated using a calibration standard curve of SOD (up to 6 unit/mg). Total SOD, MnSOD and resulting Cu/ZnSOD activities were expressed as international catalytic units per mg of proteins. The total activity of glutathione peroxidase (GPX) was determined with cumene hydroperoxide as substrate. The rate of glutathione oxidized by cumene hydroperoxide (6.5 mM) was evaluated by the decrease in NADPH (0.12 mM in Tris buffer) at 340 nm in the presence of NaCN (10 mM), reduced glutathione (0.25 mM) and glutathione reductase (1 U/mL) in Tris buffer (50 mM, pH 8). GPX activity was expressed as international units per gram of proteins. The catalase (CAT) activity assay was carried out on 40 µg of protein lysate in 25 mM Tris–HCl (pH 7.5). Blanks were measured at 240 nm just before adding 80 µL of H2O2 (10 mM final) to start the reaction. Catalase activity was determined by measuring the absorbance at 240 nm and was calculated using a calibration standard curve of an increasing amount of catalase between 12.5 and 125 unit/mL. Catalase activity was expressed as international catalytic units per mg of proteins.

[2] = tested on: protein carbonyl in obstructed kidney; assay: Curative treatment in UUO: protein carbonylation (carbonyl ELISA); conditions: curative: 25 mg/kg, 5 days; vs UUO + vehicle
Experimental: The protein carbonylation was determined as described previously by the carbonyl ELISA assay based on the recognition of protein-bound DNPH in carbonylated proteins with an anti-DNP antibody.

[3] = Plasma and kidney pharmacokinetics after a single oral dose of CA in UUO mice; conditions: single oral dose of CA 25 mg/kg, 3 days-UUO mice; for Cmax: n = 3/time, read-out: Cmax (peak plasma concentration)
Experimental: For pharmacokinetics study, the animals were submitted to UUO and 3 days later they were fasted overnight and then treated with a single dose of CA (25 mg/kg) or vehicle (n = 3/group). Blood samples (90 µL) were collected at time 0 (before treatment), 30 min, 60 min, 180 min and 360 min post-treatment. CA concentrations were measured by UPLC-HESI-Q-orbitrap (Q Exactive Plus).
To this end, three days after UUO, mice were administrated by oral route a unique dose of CA (25 mg/kg) and then were sacrificed at 30, 60, 180 and 360 min.

[4] = tested on: mRNA of inflammatory, fibrotic and antioxidant genes in obstructed kidney; assay: Curative treatment in UUO: RT-qPCR of obstructed kidney; conditions: curative: 25 mg/kg daily gavage from day 3 after UUO for 5 days
Experimental: The unilateral ureteral ligation was performed as previously described. Briefly, under oxygen-isoflurane anesthesia and through a longitudinal, left abdominal incision, the ureter was exposed and ligated with a 6/0 nylon thread at the uretero-pelvic junction. In sham operations, the ureter was exposed but not ligated and repositioned. To reduce pain Buprenorphine (0.01 mg/kg) (Buprecare […], France) was injected i.p before surgery and 12 h later. […] A. borbonica polyphenol extract (25 mg/kg) or CA (25 mg/kg) were resuspended in distilled water just before gavage. The control group received only the vehicle (distilled water). At the end of the different protocols, mice were sacrificed and the kidneys were removed, and a transverse section was fixed in Carnoy's solution for 24 h and subsequently embedded in paraffin for immuno-histological analysis. Several pieces of renal cortex were snap-frozen in liquid nitrogen and stored at -80 °C for mRNA, enzyme activities and MS/MS analysis. Total RNA was isolated from mouse kidneys with TRIzol^TM reagent (Invitrogen). […] The quantitative real-time polymerase chain reaction was performed in a 96 well plate using SYBR green^TM master mix (Eurogentec). Analysis of GAPDH was performed to normalize gene expression and the relative mRNA fold changes between groups were calculated using the 2^-^ΔΔ^Ct method.

[5] = Biodistribution of caffeic acid and ferulic acid after A. borbonica extract (UPLC-MS); conditions: for concentration at 24 h: C57BL/6J, mouse, oral, 25 mg/kg; for Concentration in urine: urine collected overnight
Experimental: Polyphenolic extract from A. borbonica was prepared by dissolving 1 g of crushed leaves in 25 mL of an aqueous acetonic solution (70%, v/v). After incubation at 4 °C for 90 min, the mixture was centrifuged at 3500× g […] at 4 °C for 20 min and polyphenol-rich supernatant was collected and stored at −80 °C until analysis. Identification of polyphenols was carried out by ultra-high-performance liquid chromatography (UHPLC) coupled with diode array detection and a HESI-Orbitrap mass spectrometer (Q Exactive Plus, Thermo Fisher). A 10 µL sample volume was injected using an UHPLC system equipped with a Thermo Fisher Ultimate 3000 series WPS-3000 RS autosampler and then separated on a PFP column (2.6 μm, 100 mm × 2.1 mm, Phenomenex, Torrance, CA, USA). The column was eluted with a gradient mixture of 0.1% formic acid in water (A) and 0.1% formic acid in acetonitrile (B) at the flow rate of 0.450 mL/min, with 5% B at 0.00 to 0.1 min, 35% B at 0.1 to 7.1 min, 95% B at 7.2 to 7.9 min and 5% B at 8.0 to 10 min. The column temperature was held at 30 °C and the detection wavelengths were set to 280 and 310 nm.
For mass spectrometer conditions, a Heated Electrospray Ionization source II (HESI II) was used. Nitrogen was used as drying gas. The mass spectrometric conditions were optimized as follows: spray voltage = 2.8 kV, capillary temperature = 350 °C, sheath gas flow rate = 60 units, aux gas flow rate = 20 units and S lens RF level = 50. Mass spectra were registered in full scan mode from m/z 100 to 1500 in negative ion mode at a resolving power of 70,000 FWHM at m/z 400. The automatic gain control (AGC) was set at 1e6. The MS/MS spectra were obtained by applying a relatively higher energy collisional dissociation (HCD) energy of 25%.
For biodistribution study, one day before sacrifice animals were placed in metabolic cages to collect urine overnight. CA and its metabolites were measured by UPLC-MS/MS in liver and kidney tissues and urine.

[6] = tested on: unilateral ureteral obstruction (UUO) mouse model; assay: Curative treatment in UUO-induced tubulointerstitial fibrosis: immunohistochemistry and Sirius red histology; conditions: curative: 25 mg/kg daily gavage from day 3 after UUO for 5 days; vs UUO + vehicle; n = 7
Experimental: The unilateral ureteral ligation was performed as previously described. Briefly, under oxygen-isoflurane anesthesia and through a longitudinal, left abdominal incision, the ureter was exposed and ligated with a 6/0 nylon thread at the uretero-pelvic junction. In sham operations, the ureter was exposed but not ligated and repositioned. To reduce pain Buprenorphine (0.01 mg/kg) (Buprecare […], France) was injected i.p before surgery and 12 h later. […] A. borbonica polyphenol extract (25 mg/kg) or CA (25 mg/kg) were resuspended in distilled water just before gavage. The control group received only the vehicle (distilled water). At the end of the different protocols, mice were sacrificed and the kidneys were removed, and a transverse section was fixed in Carnoy's solution for 24 h and subsequently embedded in paraffin for immuno-histological analysis. Several pieces of renal cortex were snap-frozen in liquid nitrogen and stored at -80 °C for mRNA, enzyme activities and MS/MS analysis. Kidneys were fixed in Carnoy's solution, dehydrated and embedded in paraffin. From kidney sections, routine histology and immunohistological staining and analysis were performed as previously described. Three to four μm thickness sections were cut and used for routine staining (hematoxylin-eosin and Sirius red staining) and immunohistochemistry. […] For immunohistochemistry, mouse renal tissue was first de-waxed in toluene and rehydrated through a series of graded ethanol washes before incubation with 3% hydrogen peroxide for 10 min at room temperature to block endogenous peroxidase activity. […] The sections were subsequently stained with the Dako Envision system ([…] (primary antibodies from mouse) and K4002 (primary antibodies from rabbit)) according to manufacturer's instruction. Sections were finally counterstained with hematoxylin. Negative controls for the immunohistochemical procedures included substitution of the primary antibody with nonimmune sera at a similar immunoglobin concentration. […]

[7] = DESI-HR/MS imaging of obstructed kidney; conditions: 1 h post oral administration of CA 25 mg/kg, UUO mice
Experimental: The 2D automated Omni Spray Kidney tissues were flash-frozen in nitrogen and stored at −80 °C before DESI-HR/MS imaging. For DESI-MS imaging and histology, 12 μm thickness kidney sections were collected and mounted on SuperFrost™ Plus glass slides.
The 2D automated Omni Spray ion source from Prosolia Inc. (Indianapolis, IN, USA) coupled to a Q-Exactive™ Plus mass spectrometer (Thermo Fisher Scientific, Bremen, Germany) was used to perform the mass spectrometry imaging experiment. A solution of methanol with 0.1% formic acid (HPLC-MS grade, Carlo Erba) was used as the extraction and ionization spray solvent, delivered by a syringe pump at a flow rate of 5 μL/min. All imaging experiments were carried out with the following experimental conditions including source parameters: 2.8 kV capillary voltage, 250 °C capillary temperature, 60% S-lens RF level and 86 psi nitrogen nebulizing gas pressure, and including geometrical parameters: ∼1 mm spray tip-to-surface distance and a spray incident angle of 60°. Mass spectra were registered in full scan mode with the mass spectrometer operating in negative mode. Survey full scan mass spectra were acquired in the 50 to 500 m/z range at resolving power 70,000 (at m/z 400) with an automatic gain control (AGC) target of 3^6 and maximum injection time of 200 ms. […]

[8] = C57BL/6J, mouse, contralateral kidney, read-out: AUC (0-360) in contralateral kidney (converted)
[9] = C57BL/6J, mouse, contralateral kidney, read-out: concentration in contralateral kidney one hour after CA administration
[10] = C57BL/6J, mouse, obstructed kidney, read-out: AUC (0-360) in obstructed kidney (converted)
[11] = C57BL/6J, mouse, obstructed kidney, read-out: concentration in obstructed kidney one hour after CA administration
[12] = C57BL/6J, mouse, plasma, 0 to 360 min, read-out: AUC (0-360) in plasma (converted)
[13] = liver, read-out: Concentration in liver
[14] = UUO mice after ingestion of 25 mg/kg A. borbonica extract (gavage), n = 7, mean ± SD

AUC(0-t) [3, 8] [µM·h] | concentration at 1 h [3, 9] [µM] | AUC(0-t) [3, 10] [µM·h] | concentration at 1 h [3, 11] [µM] | AUC(0-t) [3, 12] [µM·h] | Cmax ([3]; C57BL/6J, mouse, plasma) [µM] | tmax ([3]; plasma) | concentration at 24 h [5, 13] [µM] | Concentration in urine [5, 14] [µM] | Compound | other results
1.67 | 0.3 ± 0.1 | 14.7 | 5.3 ± 1.1 | 82.7 | 50.5 | 30 min | 0.037 ± 0.001 | 96.599 ± 19.704 | O=C(O)/C=C/c1ccc(O)c(O)c1 [Caffeic acid, caffeic acid] | CAT enzyme activity in obstructed kidney [1]: significantly increased; Cu/Zn-SOD enzyme activity in obstructed kidney [1]: significantly increased; GPX enzyme activity in obstructed kidney [1]: not significantly different; UUO-induced increase in protein carbonyl level in obstructed kidney [2]: slight decrease in carbonyl level which did not reach statistical significance; tmax ([3]; C57BL/6J, mouse, plasma, po, 25 mg/kg, plasma, read-out: tmax): ≤ 30 min; bioavailability ([3]; C57BL/6J, mouse, plasma, read-out: Bioavailability F): 0.4%; Nrf2 mRNA expression [4]: significant increase; UUO-induced mRNA expression of inflammatory and fibrotic genes (Tgf-β, Tnf-α, Nf-κB, Mcp1, Fn, Col I, Col III) ([4]; vs UUO + vehicle): downregulated; concentration at 24 h ([5]; obstructed kidney, read-out: Concentration in obstructed kidney): 0.144 ± 0.013 µM; Concentration in obstructed kidney ([5]; UUO mice after ingestion of 25 mg/kg A. borbonica extract (gavage), 24 h after administration, n = 7, mean ± SD): 0.144 ± 0.013 µM; Concentration in urine ([5]; UUO mice after ingestion of 25 mg/kg A. borbonica extract (gavage), n = 7, mean ± SD, listed as CA): 96.599 ± 19.704 µM; extracellular matrix accumulation / renal tubulointerstitial fibrosis (Sirius red staining) [6]: significant protective effect; macrophage infiltration (F4/80 immunostaining) [6]: significant protective effect; myofibroblast appearance/accumulation (α-SMA immunostaining) [6]: significant protective effect
1.64 | 0.4 ± 0.1 | 17.9 | 4.5 ± 0.8 | 77.5 | 68.3 ± 8.3 | same tmax as CA | 0.426 ± 0.099 | 38.002 ± 5.021 | COc1cc(/C=C/C(=O)O)ccc1O [Ferulic acid, ferulic acid] | spatial distribution in obstructed kidney (DESI-HR/MS imaging) [7]: in the renal cortex; Concentration in urine ([5]; UUO mice after ingestion of 25 mg/kg A. borbonica extract (gavage), n = 7, mean ± SD, listed as FA): 38.002 ± 5.021 µM
